Test results reported in PubChem BioAssay (NCI).
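How tested: cells in 96-well plates exposed to compound for 48 hours at five concentrations. GI50 marks 50% less growth. TGI is the concentration that stops growth completely.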

Experiments:
Assay in all cases: NCI anticancer screen, dose series, 48 h
HT29 colon = tested on: HT29 colon
OVCAR-5 ovarian = tested on: OVCAR-5 ovarian
CCRF-CEM leukemia = tested on: CCRF-CEM leukemia
SK-MEL-2 melanoma = tested on: SK-MEL-2 melanoma
NCI/ADR-RES ovarian = tested on: NCI/ADR-RES ovarian
NCI-H226 lung = tested on: NCI-H226 lung
LOX IMVI melanoma = tested on: LOX IMVI melanoma
MOLT-4 leukemia = tested on: MOLT-4 leukemia
U251 CNS = tested on: U251 CNS
SW-620 colon = tested on: SW-620 colon
SF-268 CNS = tested on: SF-268 CNS
DU-145 prostate = tested on: DU-145 prostate
OVCAR-8 ovarian = tested on: OVCAR-8 ovarian
NCI-H23 lung = tested on: NCI-H23 lung
NCI-H460 lung = tested on: NCI-H460 lung
HOP-92 NSCLC = tested on: HOP-92 NSCLC
BT-549 breast = tested on: BT-549 breast
SK-MEL-5 melanoma = tested on: SK-MEL-5 melanoma
T-47D breast = tested on: T-47D breast
HCT-116 colon = tested on: HCT-116 colon
PC-3 prostate = tested on: PC-3 prostate
M14 melanoma = tested on: M14 melanoma
TK-10 renal = tested on: TK-10 renal
KM12 colon = tested on: KM12 colon
SK-MEL-28 melanoma = tested on: SK-MEL-28 melanoma

SMILES: COc1cc(-c2nc3ccccc3s2)ccc1OCCCCCOc1cc2c(cc1OC)C(=O)N1CCC[C@H]1C=N2
- GI50 (HT29 colon): 83.7 nM
- TGI (HT29 colon): 4270 nM
- GI50 (OVCAR-5 ovarian): 154 nM
- TGI (OVCAR-5 ovarian): 7870 nM
- GI50 (CCRF-CEM leukemia): 27.5 nM
- TGI (CCRF-CEM leukemia): 2160 nM
- GI50 (SK-MEL-2 melanoma): 201 nM
- TGI (SK-MEL-2 melanoma): 463 nM
- GI50 (NCI/ADR-RES ovarian): 376 nM
- TGI (NCI/ADR-RES ovarian): 4760 nM
- GI50 (NCI-H226 lung): 212 nM
- TGI (NCI-H226 lung): 528 nM
- GI50 (LOX IMVI melanoma): 129 nM
- TGI (LOX IMVI melanoma): 7970 nM
- GI50 (MOLT-4 leukemia): 41.3 nM
- TGI (MOLT-4 leukemia): 2270 nM
- GI50 (U251 CNS): 63.2 nM
- TGI (U251 CNS): 7140 nM
- GI50 (SW-620 colon): 91.2 nM
- TGI (SW-620 colon): 1030 nM
- GI50 (SF-268 CNS): 305 nM
- TGI (SF-268 CNS): 3530 nM
- GI50 (DU-145 prostate): 104 nM
- TGI (DU-145 prostate): 5310 nM
- GI50 (OVCAR-8 ovarian): 168 nM
- TGI (OVCAR-8 ovarian): > 69800 nM
- GI50 (NCI-H23 lung): 114 nM
- TGI (NCI-H23 lung): 365 nM
- GI50 (NCI-H460 lung): 76.8 nM
- TGI (NCI-H460 lung): 2060 nM
- GI50 (HOP-92 NSCLC): 100 nM
- TGI (HOP-92 NSCLC): 397 nM
- GI50 (BT-549 breast): 45.7 nM
- TGI (BT-549 breast): 126 nM
- GI50 (SK-MEL-5 melanoma): 59 nM
- TGI (SK-MEL-5 melanoma): 135 nM
- GI50 (T-47D breast): 40.7 nM
- TGI (T-47D breast): 160 nM
- GI50 (HCT-116 colon): 38.7 nM
- TGI (HCT-116 colon): 10100 nM
- GI50 (PC-3 prostate): 103 nM
- TGI (PC-3 prostate): 665 nM
- GI50 (M14 melanoma): 76.2 nM
- TGI (M14 melanoma): 257 nM
- GI50 (TK-10 renal): 334 nM
- TGI (TK-10 renal): 14100 nM
- GI50 (KM12 colon): 206 nM
- TGI (KM12 colon): 1600 nM
- GI50 (SK-MEL-28 melanoma): 255 nM
